In PubChem BioAssay AID256 (DTP/NCI, 2004):
Where “and” joins values, the source holds several entries; their conditions need not be identical. Equal entries are not always repeated. Toxic doses and inconclusive results are not listed. How the source made its calls: active means survival T/C of 150% or more; inactive means T/C below 125% in these data.

System: CD2F1 mice, L1210 leukemia ip, survival T/C
Test: NCI In Vivo Anticancer Drug Screen. Data for tumor model L1210 Leukemia (intraperitoneal) in CD2F1 (CDF1) mice
Details: higher = longer survival
Method: The antitumor activity of compounds was measured in mice bearing transplantable tumors. Survival or tumor size were measured and the results are expressed as the measurement made in the treated group (T) divided by the measurement made in the vehicle treated control group (C). The tumor model used in this assay is L1210 Leukemia (intraperitoneal) in CD2F1 (CDF1) mice

[1] = endpoint: mean survival time, dose: 400.0 mg/kg/injection, schedule: Q01DX009 (ip), vehicle: saline with Tween-80
[2] = endpoint: mean survival time, dose: 100.0 mg/kg/injection, schedule: Q04DX003 (ip), vehicle: saline with Tween-80
[3] = endpoint: mean survival time, dose: 200.0 mg/kg/injection, schedule: Q04DX003 (ip), vehicle: saline with Tween-80
[4] = endpoint: mean survival time, dose: 400.0 mg/kg/injection, schedule: Q04DX003 (ip), vehicle: saline with Tween-80
[5] = endpoint: mean survival time, dose: 100.0 mg/kg/injection, schedule: Q01DX009 (ip), vehicle: saline with Tween-80
[6] = endpoint: mean survival time, dose: 200.0 mg/kg/injection, schedule: Q01DX009 (ip), vehicle: saline with Tween-80

Measured: T/C

CC(O)C1NC(=S)N(c2ccccc2)C1=O (stereo unspecified)
inactive: endpoint: mean survival time, dose: 75.0 mg/kg/injection, schedule: Q01DX001 (ip), vehicle: saline 100 % of control | endpoint: mean survival time, dose: 150.0 mg/kg/injection, schedule: Q01DX001 (ip), vehicle: saline 103 % of control | endpoint: mean survival time, dose: 300.0 mg/kg/injection, schedule: Q01DX001 (ip), vehicle: saline 103 % of control

CC(C)=NNC(=O)CC(=O)NN=C(C)C
inactive: endpoint: mean survival time, dose: 100.0 mg/kg/injection, schedule: Q01DX009 (ip), vehicle: saline sonified 100 % of control | endpoint: mean survival time, dose: 180.0 mg/kg/injection, schedule: Q01DX009 (ip), vehicle: saline with Tween-80 100 % of control | endpoint: mean survival time, dose: 200.0 mg/kg/injection, schedule: Q01DX009 (ip), vehicle: saline sonified 102 % of control | endpoint: mean survival time, dose: 266.0 mg/kg/injection, schedule: Q01DX009 (ip), vehicle: saline with Tween-80 100 % of control | [1] 110 % of control | endpoint: mean survival time, dose: 600.0 mg/kg/injection, schedule: Q01DX009 (ip), vehicle: saline with Tween-80 122 % of control

NS(=O)(=O)c1ccc(SSc2ccc(S(N)(=O)=O)cc2[N+](=O)[O-])c([N+](=O)[O-])c1
inactive: endpoint: mean survival time, dose: 12.5 mg/kg/injection, schedule: Q01DX009 (ip), vehicle: other 95 % of control | endpoint: mean survival time, dose: 25.0 mg/kg/injection, schedule: Q01DX009 (ip), vehicle: other 95 % of control | endpoint: mean survival time, dose: 50.0 mg/kg/injection, schedule: Q01DX009 (ip), vehicle: other 96 % of control | endpoint: mean survival time, dose: 100.0 mg/kg/injection, schedule: Q01DX009 (ip), vehicle: other 98 % of control | endpoint: mean survival time, dose: 200.0 mg/kg/injection, schedule: Q01DX009 (ip), vehicle: other 95 % of control

O=Cc1cc(Cl)cc(Cl)c1O
inactive: [2] 96 % of control | [3] 98 % of control

O=C(O)c1ccccc1C(Br)C(Br)c1ccccc1 (stereo unspecified)
inactive: [2] 101 % of control | [3] 98 % of control | [4] 106 % of control

C1CC2(CCC13CO3)CO2 (stereo unspecified)
inactive: endpoint: mean survival time, dose: 25.0 mg/kg/injection, schedule: Q04DX002 (ip), vehicle: saline with Tween-80 91 % of control | endpoint: mean survival time, dose: 50.0 mg/kg/injection, schedule: Q04DX002 (ip), vehicle: saline with Tween-80 91 % of control and 103 % of control | endpoint: mean survival time, dose: 100.0 mg/kg/injection, schedule: Q04DX002 (ip), vehicle: Klucel (hydroxypropylcellulose) (HPC) 102 % of control | endpoint: mean survival time, dose: 100.0 mg/kg/injection, schedule: Q04DX002 (ip), vehicle: saline with Tween-80 91 % of control and 107 % of control | endpoint: mean survival time, dose: 200.0 mg/kg/injection, schedule: Q04DX002 (ip), vehicle: Klucel (hydroxypropylcellulose) (HPC) 112 % of control | endpoint: mean survival time, dose: 200.0 mg/kg/injection, schedule: Q04DX002 (ip), vehicle: saline with Tween-80 100 % of control and 119 % of control | endpoint: mean survival time, dose: 400.0 mg/kg/injection, schedule: Q04DX002 (ip), vehicle: Klucel (hydroxypropylcellulose) (HPC) 119 % of control | endpoint: mean survival time, dose: 600.0 mg/kg/injection, schedule: Q04DX002 (ip), vehicle: Klucel (hydroxypropylcellulose) (HPC) 119 % of control | endpoint: median survival time, dose: 50.0 mg/kg/injection, schedule: Q04DX002 (ip), vehicle: saline with Tween-80 102 % of control | endpoint: median survival time, dose: 100.0 mg/kg/injection, schedule: Q04DX002 (ip), vehicle: saline with Tween-80 105 % of control | endpoint: median survival time, dose: 200.0 mg/kg/injection, schedule: Q04DX002 (ip), vehicle: saline with Tween-80 105 % of control | endpoint: median survival time, dose: 400.0 mg/kg/injection, schedule: Q04DX002 (ip), vehicle: saline with Tween-80 109 % of control | endpoint: median survival time, dose: 800.0 mg/kg/injection, schedule: Q04DX002 (ip), vehicle: saline with Tween-80 114 % of control

COc1ccc(NC(=O)CC(C)C(=O)O)cc1 (stereo unspecified)
inactive: [2] 101 % of control | [3] 100 % of control | [4] 101 % of control

CC(=O)Nc1ccc(N=CN(C)C)cc1
inactive: [2] 95 % of control | [3] 95 % of control | [4] 112 % of control

[Cl][Pt+2][Cl].[NH-]c1ccc(F)c(Cl)c1.[NH-]c1ccc(F)c(Cl)c1
inactive: endpoint: mean survival time, dose: 3.13 mg/kg/injection, schedule: Q04DX003 (ip), vehicle: distilled water + Tween-80 108 % of control | endpoint: mean survival time, dose: 6.25 mg/kg/injection, schedule: Q04DX003 (ip), vehicle: distilled water + Tween-80 103 % of control | endpoint: mean survival time, dose: 12.5 mg/kg/injection, schedule: Q04DX003 (ip), vehicle: distilled water + Tween-80 110 % of control | endpoint: mean survival time, dose: 25.0 mg/kg/injection, schedule: Q04DX003 (ip), vehicle: distilled water + Tween-80 110 % of control | endpoint: mean survival time, dose: 50.0 mg/kg/injection, schedule: Q04DX003 (ip), vehicle: distilled water + Tween-80 110 % of control

c1ccc2c(c1)C(=NN=C1c3ccccc3-c3ccccc31)c1ccccc1-2
inactive: [5] 94 % of control | [2] 94 % of control | [6] 92 % of control | [3] 88 % of control | [1] 94 % of control | [4] 88 % of control

Cc1ccc(S(=O)(=O)N/N=C2\CC3CCC2C3)cc1 (stereo unspecified)
inactive: [5] 90 % of control and 105 % of control | [6] 96 % of control and 100 % of control | [1] 93 % of control and 96 % of control

O=C(O)/C=C(/Cl)c1ccccc1
inactive: [5] 101 % of control | [6] 91 % of control | [1] 89 % of control

O=C1N(CCO)CCN1/N=C/c1ccc([N+](=O)[O-])o1
inactive: [2] 93 % of control | [3] 102 % of control | [4] 95 % of control

CCOC(=O)C(CC)CO (stereo unspecified)
inactive: endpoint: mean survival time, dose: 100.0 mg/kg/injection, schedule: Q04DX003 (ip), vehicle: saline 105 % of control | endpoint: mean survival time, dose: 200.0 mg/kg/injection, schedule: Q04DX003 (ip), vehicle: saline 103 % of control | endpoint: mean survival time, dose: 400.0 mg/kg/injection, schedule: Q04DX003 (ip), vehicle: saline 103 % of control
